{
  "source": "patent US20030139469A1",
  "about": "“Use of inhibitors of soluble epoxide hydrolase to inhibit vascular smooth muscle cell proliferation” (THE REGENTS OF THE UNIVERSITY OF CALIFORNIA, priority 2002, published 2003)",
  "key": {"human VSM cells": {"system": "human VSM cells", "experiment": "direct counting of trypsinized VSM cells by hemocytometer", "assay_type": "cell-based", "conditions": "12 μM, 10% serum, FIG. 1c", "protocol": "FIG. 1c. CDU (12 μM) or an equal volume of DMSO vehicle (as a control) was added concomitantly with 10% serum and the cells were counted by hemocytometer after trypsinization. Proliferation Assays. [^3H]thymidine incorporation assays were performed. To evaluate proliferation of suspension cells, cells were resuspended at 2×10^5 cells/mL in culture medium and the medium supplemented with the compound of interest or the corresponding vehicle. At the indicated times, cell density was estimated using light microscopy and a hemocytometer. To directly evaluate the proliferation of adherent cells, 2×10^4 cells were plated in a 35 mm culture dish and allowed to adhere overnight. The medium was then supplemented with the compound of interest or the corresponding vehicle. At the indicated times, the number of cells in the plate was calculated by subjecting the cells to trypsinization and the cell density quantitated by light microscopy using a hemocytometer."}, "[1]": {"system": "human foreskin fibroblasts", "experiment": "[3H]thymidine incorporation, human foreskin fibroblasts", "assay_type": "cell-based", "conditions": "PDGF-BB stimulated, similar concentrations to VSM cells, FIG. 1d", "protocol": "FIG. 1d. Human foreskin fibroblasts were treated similarly to VSM cells in FIG. 1a and [^3H]thymidine incorporation into DNA was assessed."}, "VSM cells": {"system": "VSM cells", "experiment": "thymidine uptake into VSM cells", "assay_type": "cell-based, human", "conditions": "12 μM CDU vs DMSO vehicle, seconds to minutes, FIG. 1e", "protocol": "FIG. 1e. CDU at the indicated concentrations was added to non-serum-starved cells and uptake of thymidine into the cells was assessed at the indicated times after its addition as described in Example 1. Error bars represent SD; *p<0.05 compared to (for FIGS. 1a and 1d) PDGF alone or (for FIG. 1b) serum alone or (for FIG. 1e) DMSO. Data shown are representative of at least two independent experiments.\nThymidine Uptake. To quantify thymidine uptake, 1.73×10^4 cells were distributed per well in a 24-well plate. […] The media was then adjusted to […] ^3H-methyl-thymidine (1 mCi/mL, 25 Ci/mmol, Amersham-Pharmacia). At the indicated times, medium was aspirated, the cells were washed three times with ice-cold PBS, and then incubated in 500 μL 1 M NaOH for 20 min. The mixture was neutralized with 0.5 mL 1 M HCl and diluted into scintillation fluid for liquid scintillation counting."}, "HL-60 cells": {"system": "HL-60 cells", "experiment": "HL-60 cell proliferation (hemocytometer count)", "assay_type": "cell-based, human", "conditions": "12 μM, 24 and 48 h, FIG. 2", "protocol": "Human promyelocytic HL-60 were incubated in serum-containing medium and CDU (12 μM) or DMSO vehicle was added at time zero. At 24 and 48 h after CDU addition the cells were counted using a hemocytometer. Error bars represent SD. Data shown are representative of two independent experiments. Cell Culture. Human aortic smooth muscle cells were obtained from Clonetics (San Diego Calif.) at passage 3 and were maintained in MCBD 131 media supplemented with 2.5% FBS, 5 mg/L bovine insulin, 2 ug/L human recombinant EGF, 1 ug/L human recombinant PDGF-BB (“PDGF” is platelet derived growth factor, which is composed of a dimer of two chains, the A chain and the B chain, “PDGF-BB is a 24.3 kD homodimer of two B chains), 100 u/ml of penicillin, 100 u/ml streptomycin, and 2.5 ug/ml amphotericin B. The cells were growth-arrested by placing them in quiescence medium containing MCDB 131 medium, 20 mM HEPES (pH 7.4), 5 mg/ml transferrin, 0.5 mg/ml BSA, 50 U/ml penicillin, 50 U/ml streptomycin, and 2.5 ug/ml amphotericin B. Quiescence medium was changed daily for 1-2 days before each experiment. HL-60 cells were obtained from ATCC or from D. Hyde (UC Davis). […] At the indicated times, the number of cells in the plate was calculated by subjecting the cells to trypsinization and the cell density quantitated by light microscopy using a hemocytometer."}, "A549 lung cancer cells": {"system": "A549 lung cancer cells", "experiment": "MTT assay A549", "assay_type": "cell-based", "conditions": "up to 40 μM"}, "ERK42/44 phosphorylation": {"system": "ERK42/44 phosphorylation", "experiment": "Western blot phospho-MAPK in VSM cells", "assay_type": "cell-based, human", "conditions": "10 μM, 4 h after PDGF-BB, FIG. 6", "protocol": "Human VSM cells were grown to 80-90% confluence and serum-starved as in FIG. 1. Four hours after stimulation with PDGF-BB (30 ng/ml) in the presence or absence of CDU (10 μM), the cells were lysed and equal protein quantities were electrophoresed and immunoblotted with phospho-MAPK antibody. Data shown are representative of three independent experiments Western Blots. After treatment with appropriate compounds for the indicated times, cells were lysed, protein concentrations were determined by the Lowry method, and equal protein quantities were electrophoresed and Western blotted."}, "[2]": {"molecular_target": "soluble epoxide hydrolase (sEH)", "conditions": "cited from earlier work"}},
  "data": [
    {"smiles": "CCCCCCCCCCCCNC(=O)NC1CCCCC1", "note": "[CDU, 1-cyclohexyl-3-dodecyl urea]", "values": [
      {"measurement": "cell proliferation by direct counting of trypsinized cells", "setting": "human VSM cells", "value": "Inhibition of cell proliferation"},
      {"measurement": "[3H]thymidine incorporation", "setting": "[1]", "value": "inhibited"},
      {"measurement": "cellular uptake of thymidine", "setting": "VSM cells", "value": "occurs to a similar extent"},
      {"measurement": "proliferation of HL-60 cells", "setting": "HL-60 cells", "value": "proliferated to a similar extent"},
      {"measurement": "toxicity, MTT assay", "setting": "A549 lung cancer cells", "value": "no toxicity observed"},
      {"measurement": "PDGF-stimulated ERK42/44 phosphorylation", "setting": "ERK42/44 phosphorylation", "value": "no change"},
      {"measurement": "Ki", "setting": "[2]", "value": "20 ± 2", "unit": "nM"}
    ]}
  ]
}
